From the supplement of paper PMC10307832

What was measured:
Assay in all cases: relative viability (nuclei count vs DMSO), 5 days (fraction); higher = more cells survive
[1] = compound: C[C@H]([C@@H](C(=O)N)NC(=O)[C@@H]1CSSC[C@@H](C(=O)N[C@H](C(=O)N[C@@H](C(=O)N[C@H](C(=O)N1)CCCCN)CC2=CNC3=CC=CC=C32)CC4=CC=C(C=C4)O)NC(=O)[C@@H](CC5=CC=CC=C5)N)O [CAP-232] + O=C(CCCCCCC(=O)Nc1ccccc1)NO [Vorinostat] (partner 1 µM)
Summary of the method: (§1)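 Lung cancer cell lines in 1536-well plates were dosed by pin tool the day after seeding, either with one drug alone or with a fixed anchor-drug dose plus five library-drug doses (not always all listed) in √10 steps. After 5 days, cells were fixed and their nuclei stained in one step (final 0.05% Triton X-100, 1% formaldehyde, 1 ug/ml Hoechst), then counted on 4× images. Relative viability is the nuclei count in treated wells divided by that in vehicle wells. Values are medians of duplicate plates.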

[2] = compound: C[C@H]([C@@H](C(=O)N)NC(=O)[C@@H]1CSSC[C@@H](C(=O)N[C@H](C(=O)N[C@@H](C(=O)N[C@H](C(=O)N1)CCCCN)CC2=CNC3=CC=CC=C32)CC4=CC=C(C=C4)O)NC(=O)[C@@H](CC5=CC=CC=C5)N)O [CAP-232] + O=C(c1cc(Cc2n[nH]c(=O)c3ccccc23)ccc1F)N1CCN(C(=O)C2CC2)CC1 [Olaparib] (partner 8 µM)
Summary of the method: as §1

[3] = compound: C[C@H]([C@@H](C(=O)N)NC(=O)[C@@H]1CSSC[C@@H](C(=O)N[C@H](C(=O)N[C@@H](C(=O)N[C@H](C(=O)N1)CCCCN)CC2=CNC3=CC=CC=C32)CC4=CC=C(C=C4)O)NC(=O)[C@@H](CC5=CC=CC=C5)N)O [CAP-232] + Nc1nc2[nH]cc(CCc3ccc(C(=O)N[C@@H](CCC(=O)O)C(=O)O)cc3)c2c(=O)[nH]1 [Pemetrexed] (partner 0.2 µM)
Summary of the method: as §1

[4] = compound: C[C@H]([C@@H](C(=O)N)NC(=O)[C@@H]1CSSC[C@@H](C(=O)N[C@H](C(=O)N[C@@H](C(=O)N[C@H](C(=O)N1)CCCCN)CC2=CNC3=CC=CC=C32)CC4=CC=C(C=C4)O)NC(=O)[C@@H](CC5=CC=CC=C5)N)O [CAP-232] + Nc1ncn([C@H]2C[C@H](O)[C@@H](CO)O2)c(=O)n1 [Decitabine] (partner 2 µM)
Summary of the method: as §1

[5] = compound: C[C@H]([C@@H](C(=O)N)NC(=O)[C@@H]1CSSC[C@@H](C(=O)N[C@H](C(=O)N[C@@H](C(=O)N[C@H](C(=O)N1)CCCCN)CC2=CNC3=CC=CC=C32)CC4=CC=C(C=C4)O)NC(=O)[C@@H](CC5=CC=CC=C5)N)O [CAP-232] + Cc1nc(NC(=O)N2CCC[C@H]2C(N)=O)sc1-c1ccnc(C(C)(C)C(F)(F)F)c1 [Alpelisib] (partner 2 µM)
Summary of the method: as §1

With NCI-H1793 the relative viability ([1]; first compound 0.4 µM) was 0.947, the relative viability ([1]; first compound 1.265 µM) was 0.703 and the relative viability ([1]; first compound 4 µM) was 0.728. It also gave a relative viability ([1]; first compound 12.65 µM) of 0.653, a relative viability ([2]; first compound 0.4 µM) of 0.921 and a relative viability ([2]; first compound 1.265 µM) of 0.922. It also gave a relative viability ([2]; first compound 4 µM) of 1.04, a relative viability ([2]; first compound 12.65 µM) of 0.877 and a relative viability ([3]; first compound 0.4 µM) of 1.01. For the same cell line, the relative viability ([3]; first compound 1.265 µM) was 0.61, the relative viability ([3]; first compound 4 µM) was 0.905 and the relative viability ([3]; first compound 12.65 µM) was 0.696. It also gave a relative viability ([4]; first compound 0.4 µM) of 0.473, a relative viability ([4]; first compound 1.265 µM) of 0.406 and a relative viability ([4]; first compound 4 µM) of 0.389. The relative viability ([4]; first compound 12.65 µM) was 0.494, the relative viability ([5]; first compound 0.4 µM) was 0.829 and the relative viability ([5]; first compound 1.265 µM) was 0.669. For the same cell line, the relative viability ([5]; first compound 4 µM) was 0.573 and the relative viability ([5]; first compound 12.65 µM) was 0.627.
In the case of COR-L 105, the relative viability ([1]; first compound 0.4 µM) is reported as 0.871, the relative viability ([1]; first compound 1.265 µM) is reported as 0.719 and the relative viability ([1]; first compound 4 µM) is reported as 1. For the same cell line, the relative viability ([1]; first compound 12.65 µM) was 0.637, the relative viability ([2]; first compound 0.4 µM) was 0.733 and the relative viability ([2]; first compound 1.265 µM) was 0.61. The relative viability ([2]; first compound 4 µM) was 0.712, the relative viability ([2]; first compound 12.65 µM) was 0.571 and the relative viability ([3]; first compound 0.4 µM) was 1.44. For the same cell line, the relative viability ([3]; first compound 1.265 µM) was 0.964, the relative viability ([3]; first compound 4 µM) was 1.18 and the relative viability ([3]; first compound 12.65 µM) was 0.783. It also gave a relative viability ([4]; first compound 0.4 µM) of 0.629, a relative viability ([4]; first compound 1.265 µM) of 0.647 and a relative viability ([4]; first compound 4 µM) of 0.684. The relative viability ([4]; first compound 12.65 µM) was 0.477, the relative viability ([5]; first compound 0.4 µM) was 1.09 and the relative viability ([5]; first compound 1.265 µM) was 0.917. It also gave a relative viability ([5]; first compound 4 µM) of 1.16 and a relative viability ([5]; first compound 12.65 µM) of 0.594.
Cell Line PC-14 has a relative viability ([1]; first compound 0.4 µM) of 0.793, a relative viability ([1]; first compound 1.265 µM) of 0.701 and a relative viability ([1]; first compound 4 µM) of 0.725. It also gave a relative viability ([1]; first compound 12.65 µM) of 0.522, a relative viability ([2]; first compound 0.4 µM) of 0.265 and a relative viability ([2]; first compound 1.265 µM) of 0.264. For the same cell line, the relative viability ([2]; first compound 4 µM) was 0.213, the relative viability ([2]; first compound 12.65 µM) was 0.239 and the relative viability ([3]; first compound 0.4 µM) was 0.121. It also gave a relative viability ([3]; first compound 1.265 µM) of 0.123, a relative viability ([3]; first compound 4 µM) of 0.137 and a relative viability ([3]; first compound 12.65 µM) of 0.127. It also gave a relative viability ([4]; first compound 0.4 µM) of 0.215, a relative viability ([4]; first compound 1.265 µM) of 0.191 and a relative viability ([4]; first compound 4 µM) of 0.205. The relative viability ([4]; first compound 12.65 µM) was 0.151, the relative viability ([5]; first compound 0.4 µM) was 1.06 and the relative viability ([5]; first compound 1.265 µM) was 0.911. For the same cell line, the relative viability ([5]; first compound 4 µM) was 1.14 and the relative viability ([5]; first compound 12.65 µM) was 0.926.
EMC-BAC-2 gave a relative viability ([1]; first compound 0.4 µM) of 0.818, a relative viability ([1]; first compound 1.265 µM) of 0.395 and a relative viability ([1]; first compound 4 µM) of 0.483. It also gave a relative viability ([1]; first compound 12.65 µM) of 0.383, a relative viability ([2]; first compound 0.4 µM) of 0.52 and a relative viability ([2]; first compound 1.265 µM) of 0.47. It also gave a relative viability ([2]; first compound 4 µM) of 0.469, a relative viability ([2]; first compound 12.65 µM) of 0.398 and a relative viability ([3]; first compound 0.4 µM) of 0.44. It also gave a relative viability ([3]; first compound 1.265 µM) of 0.412, a relative viability ([3]; first compound 4 µM) of 0.422 and a relative viability ([3]; first compound 12.65 µM) of 0.442. The relative viability ([4]; first compound 0.4 µM) was 0.969, the relative viability ([4]; first compound 1.265 µM) was 0.963 and the relative viability ([4]; first compound 4 µM) was 0.959. The relative viability ([4]; first compound 12.65 µM) was 0.972, the relative viability ([5]; first compound 0.4 µM) was 0.78 and the relative viability ([5]; first compound 1.265 µM) was 0.718. The relative viability ([5]; first compound 4 µM) was 0.743 and the relative viability ([5]; first compound 12.65 µM) was 0.623.
With LU99A the relative viability ([1]; first compound 0.4 µM) was 0.533, the relative viability ([1]; first compound 1.265 µM) was 0.492 and the relative viability ([1]; first compound 4 µM) was 0.589. For the same cell line, the relative viability ([1]; first compound 12.65 µM) was 0.533, the relative viability ([2]; first compound 0.4 µM) was 0.233 and the relative viability ([2]; first compound 1.265 µM) was 0.232. It also gave a relative viability ([2]; first compound 4 µM) of 0.332, a relative viability ([2]; first compound 12.65 µM) of 0.306 and a relative viability ([3]; first compound 0.4 µM) of 0.181. It also gave a relative viability ([3]; first compound 1.265 µM) of 0.139, a relative viability ([3]; first compound 4 µM) of 0.182 and a relative viability ([3]; first compound 12.65 µM) of 0.177. For the same cell line, the relative viability ([4]; first compound 0.4 µM) was 0.861, the relative viability ([4]; first compound 1.265 µM) was 0.806 and the relative viability ([4]; first compound 4 µM) was 1.1. The relative viability ([4]; first compound 12.65 µM) was 0.973, the relative viability ([5]; first compound 0.4 µM) was 0.515 and the relative viability ([5]; first compound 1.265 µM) was 0.517. For the same cell line, the relative viability ([5]; first compound 4 µM) was 0.471 and the relative viability ([5]; first compound 12.65 µM) was 0.497.
RERF-LC-KJ gave a relative viability ([1]; first compound 0.4 µM) of 0.817, a relative viability ([1]; first compound 1.265 µM) of 0.763 and a relative viability ([1]; first compound 4 µM) of 0.706. It also gave a relative viability ([1]; first compound 12.65 µM) of 0.485, a relative viability ([2]; first compound 0.4 µM) of 0.98 and a relative viability ([2]; first compound 1.265 µM) of 0.893. It also gave a relative viability ([2]; first compound 4 µM) of 1.03, a relative viability ([2]; first compound 12.65 µM) of 0.721 and a relative viability ([3]; first compound 0.4 µM) of 0.499. For the same cell line, the relative viability ([3]; first compound 1.265 µM) was 0.534, the relative viability ([3]; first compound 4 µM) was 0.441 and the relative viability ([3]; first compound 12.65 µM) was 0.407. For the same cell line, the relative viability ([4]; first compound 0.4 µM) was 0.659, the relative viability ([4]; first compound 1.265 µM) was 0.758 and the relative viability ([4]; first compound 4 µM) was 0.79. For the same cell line, the relative viability ([4]; first compound 12.65 µM) was 0.41, the relative viability ([5]; first compound 0.4 µM) was 0.951 and the relative viability ([5]; first compound 1.265 µM) was 0.693. It also gave a relative viability ([5]; first compound 4 µM) of 0.833 and a relative viability ([5]; first compound 12.65 µM) of 0.816.
Work on NCI-H596 yielded a relative viability ([1]; first compound 0.4 µM) of 0.666, a relative viability ([1]; first compound 1.265 µM) of 0.613 and a relative viability ([1]; first compound 4 µM) of 0.582. For the same cell line, the relative viability ([1]; first compound 12.65 µM) was 0.53, the relative viability ([2]; first compound 0.4 µM) was 0.713 and the relative viability ([2]; first compound 1.265 µM) was 0.612. For the same cell line, the relative viability ([2]; first compound 4 µM) was 0.583, the relative viability ([2]; first compound 12.65 µM) was 0.641 and the relative viability ([3]; first compound 0.4 µM) was 0.562. It also gave a relative viability ([3]; first compound 1.265 µM) of 0.49, a relative viability ([3]; first compound 4 µM) of 0.439 and a relative viability ([3]; first compound 12.65 µM) of 0.448. The relative viability ([4]; first compound 0.4 µM) was 1.03, the relative viability ([4]; first compound 1.265 µM) was 0.971 and the relative viability ([4]; first compound 4 µM) was 0.69. The relative viability ([4]; first compound 12.65 µM) was 0.965, the relative viability ([5]; first compound 0.4 µM) was 0.558 and the relative viability ([5]; first compound 1.265 µM) was 0.512. It also gave a relative viability ([5]; first compound 4 µM) of 0.497 and a relative viability ([5]; first compound 12.65 µM) of 0.507.
